Assay results: paper PMC8122972, “Methoxy-Substituted Tyramine Derivatives Synthesis, Computational Studies and Tyrosinase Inhibitory Kinetics” (Molecules, 2021)
“And” between values parts separate entries of the source, which are not always exact repeats. Equal values may be shown once. “Also recorded” adds a separate entry of the source. Read-outs that look alike come from different tables or passages of the source.

Columns and labels:
[1] = biological target: T1, human tyrosinase (Homo sapiens, UniProt P14679); experiment: Human tyrosinase inhibition assay (enzyme prepared from A375 human melanoma cells); type: biochemical; settings: L-DOPA, 50 µg/mL (b9)
T1 construct: endogenous in cells; host or cells: A375 human melanoma cells (ATCC), induced with L-tyrosine; sonicated pellet, 10,000 x g supernatant
T1 sequence (P14679 19-529): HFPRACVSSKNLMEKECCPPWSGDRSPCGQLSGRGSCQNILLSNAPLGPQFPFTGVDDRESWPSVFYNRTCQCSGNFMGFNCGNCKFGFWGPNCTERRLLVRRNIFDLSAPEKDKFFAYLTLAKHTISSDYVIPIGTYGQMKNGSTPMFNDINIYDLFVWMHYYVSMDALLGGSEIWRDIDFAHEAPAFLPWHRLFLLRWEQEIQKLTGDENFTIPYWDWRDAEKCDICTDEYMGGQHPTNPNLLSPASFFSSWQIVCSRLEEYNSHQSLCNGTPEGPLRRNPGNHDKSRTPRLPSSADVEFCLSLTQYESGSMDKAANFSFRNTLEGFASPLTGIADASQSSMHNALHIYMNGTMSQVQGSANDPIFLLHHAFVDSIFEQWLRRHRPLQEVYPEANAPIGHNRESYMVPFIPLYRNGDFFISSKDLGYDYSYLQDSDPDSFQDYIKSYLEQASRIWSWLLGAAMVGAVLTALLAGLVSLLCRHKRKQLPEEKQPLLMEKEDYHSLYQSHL
Procedure: A375 human melanoma cells were obtained from American Type Culture Collection (ATCC; Rockville, MD, USA). A375 cells were grown in Dulbecco’s modified Eagle’s medium (DMEM; Invitrogen, Burlington, ON, Canada) supplemented with L-glutamine, 10% (v/v) fetal bovine serum (FBS; Invitrogen), 50 µg/mL streptomycin (Sigma Aldrich, St. Louis, MO, USA), 50 units/mL penicillin (Sigma Aldrich) and supplemented with 200 µM of L-tyrosine for tyrosinase induction. Cell cultures were incubated at 37 °C, in a humidified atmosphere of 5% CO2. Cells were scraped out from the tissue culture plate with phosphate-buffer saline (PBS) and were homogenized at 4 °C in PBS. The homogenate was centrifuged at 1000× g for 10 min. The precipitate was sonicated in PBS on ice and the mixture was centrifuged at 10,000× g for 30 min. The supernatant containing tyrosinase was used for the measurement of the inhibitory effects.
The assay reaction mixture (200 µL) contained 3.3 mM L-DOPA in 0.33 M phosphate buffer (pH 7.0) and the enzyme in the presence and absence of inhibitors. Fifteen or twenty units of tyrosinase were used to determine the % inhibition. The reaction mixture was incubated at 37 °C for 10 min and the absorbance was recorded at 475 nm using a microplate reader (OPTI Max, Tunable). One unit of the enzyme was defined as the amount of enzyme which increases the absorbance value by 0.001 at 475 per minute under the same conditions as described above.

[2] = biological target: T2, mushroom tyrosinase (Agaricus bisporus, UniProt C7FF04); experiment: Kinetic analysis of the inhibition of mushroom tyrosinase (Lineweaver-Burk plots); type: biochemical; settings: for Inhibition Type: Lineweaver-Burk plots; for Ki: secondary plot of slope
T2 construct: purchased Sigma Aldrich (St. Louis, MO, USA)
Procedure: Among the synthesized Ph derivatives Ph5, Ph6 and Ph9 were selected to determine their inhibition type and inhibition constants on mushroom tyrosinase activity. The potential of these derivatives to inhibit the free enzyme and enzyme–substrate complex was determined in terms of enzyme inhibitor (EI) and enzyme–substrate-inhibitor (ESI) constants respectively. […] Meanwhile, in the case of compound Ph6, the Lineweaver–Burk plot gave a family of straight lines, all of which intersected at the same point on the x-axis Figure 2A. […] It is worth mentioning here that the enzyme inhibitory kinetics were performed with a more efficient natural substrate L-DOPA (L-3,4-dihydroxyphenylalanine). Ph5 is a 3,5-dihydroxyl-substituted benzoic acid derivative and Ph9 is 2,4-dihydroxyl-substituted cinnamic acid derivative whereas, Ph6 is an unsubstituted cinnamic acid analogue.
A series of experiments were performed to calculate the inhibitory kinetics of compounds Ph5, Ph6 and Ph9 by following the already reported method. […] The concentration of substrate L-DOPA was between 0.125 to 2 mM in all kinetic studies. Pre-incubation time and measurement time were the same as discussed in mushroom tyrosinase inhibition assay protocol. Maximal initial velocity was determined from initial linear portion of absorbance up to five minutes after addition of enzyme at a 30 s interval. The inhibition type on the enzyme was determined by Lineweaver–Burk plots of inverse velocities (1/V) versus the inverse of substrate concentration 1/[S] mM^−1.
Target sequence in this assay (C7FF04 1-392): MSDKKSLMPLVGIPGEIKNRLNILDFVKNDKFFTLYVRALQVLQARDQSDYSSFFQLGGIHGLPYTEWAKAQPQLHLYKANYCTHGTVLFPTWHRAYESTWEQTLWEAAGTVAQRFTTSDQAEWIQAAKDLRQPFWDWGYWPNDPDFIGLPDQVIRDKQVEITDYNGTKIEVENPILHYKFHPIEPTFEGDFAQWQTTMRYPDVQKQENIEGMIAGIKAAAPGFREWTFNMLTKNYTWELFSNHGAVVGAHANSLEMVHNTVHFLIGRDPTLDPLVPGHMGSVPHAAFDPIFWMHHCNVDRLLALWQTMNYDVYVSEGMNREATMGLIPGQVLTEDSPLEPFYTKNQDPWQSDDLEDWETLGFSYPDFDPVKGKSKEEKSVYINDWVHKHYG

[3] = biological target: T2, mushroom tyrosinase; experiment: In vitro mushroom tyrosinase inhibition assay (L-DOPA, dopachrome at 475 nm); type: biochemical
Target sequence in this assay (C7FF04 1-392 limits assumed): as the sequence (C7FF04 1-392) above
Procedure: In vitro mushroom tyrosinase (Sigma Aldrich, St. Louis, MO, USA) inhibition assay was performed, following our already reported method [52]. In detail, 140 µL of phosphate buffer (20 mM, pH 6.8), 20 µL of mushroom tyrosinase (30 U/mL) and 20 µL of the inhibitor solution were placed in the wells of a 96-well microplate. After pre-incubation for 10 min at room temperature, 20 µL of L-DOPA (3,4-dihydroxyphenylalanine, Sigma Aldrich, St. Louis, MO, USA) (0.85 mM) was added and the assay plate was further incubated at 25 °C for 20 min. Afterward the absorbance of dopachrome was measured at 475 nm using a microplate reader (OPTIMax, Tunable, Sunnyvale, CA, USA). All of the compounds were dissolved in DMSO and blank tests were performed with solvent DMSO. The IC50 values were reported after subtracting the value of DMSO. […] Each concentration was analyzed in three independent experiments. The IC50 values were determined by the data analysis and graphing software Origin 8.6, 64-bit.
The tyrosinase %age inhibition was determined by using the following formula:Inhibition (%) = [(B − S)/B] × 100(1)
Here, the absorbance of the blank and inhibitor are represented by B and S respectively.

[4] = biological target: tyrosinase; set-up: method as in PMID 24191339; settings: cited from earlier work
[5] = mushroom tyrosinase, L-DOPA, read-out: Ki (enzyme inhibitor constant)
[6] = substrate L-DOPA, pH 6.8, 25 °C, read-out: Mushroom Tyrosinase IC50 ± SEM

With COc1ccc(CCNC(=O)COC(=O)/C=C/c2ccc(O)cc2O)cc1 [Ph9, 2-((4-methoxyphenethyl)amino)-2-oxoethyl(E)-3-(2,4-dihydroxyphenyl)acrylate] the “Human Tyrosinase (% Inhibition)” value [1] was 94.59 ± 8.071%, the inhibition at 50 µg/mL [1] was 94.6% and the Vmax ([2]; inhibitor dose 0.00003 µM) was 4.666 × 10^−6 ∆A/s. For the same compound, the Vmax ([2]; inhibitor dose 0.00012 µM) was 2.666 × 10^−6 ∆A/s, the Vmax ([2]; inhibitor dose 0.00015 µM) was 4.285 × 10^−6 ∆A/s and the “Inhibition Type” value ([2]; mushroom tyrosinase, L-DOPA) was “mixed-type inhibition”. For the same compound, the Ki [2, 5] was 0.09 nM and 0.093 nM, the IC50 ([3]; read-out: Mushroom tyrosinase IC50) was 0.059 nM and the IC50 [3, 6] was 0.06 nM and 0.059 nM and 0.0595 nM.
COc1ccc(CCNC(=O)COC(=O)/C=C/c2ccccc2O)cc1 [Ph7, 2-((4-methoxyphenethyl)amino)-2-oxoethyl (E)-3-(2-hydroxyphenyl)acrylate] showed an inhibition [1] of 85.6 ± 6.04%, a melting point of 111 to 113 °C and an IC50 [3, 6] of 104 ± 3.8 nM.
In the case of O=c1c(O)c(-c2ccc(O)c(O)c2)oc2cc(O)c(O)c(O)c12 [quercetagetin], the “Tyrosinase inhibitory activity IC50” value ([4]; substrate L-DOPA) is listed as 128.41 µg/mL and the “Tyrosinase inhibitory activity IC50” value ([4]; substrate L-tyrosine) is listed as 89.31 µg/mL.
For COc1ccc(CCNC(=O)COC(=O)c2cc(O)cc(O)c2)cc1 [Ph5, 2-((4-methoxyphenethyl)amino)-2-oxoethyl 3,5-dihydroxybenzoate], the inhibition [1] was 64.8 ± 3.84%, the Vmax ([2]; inhibitor dose 0.2 µM) was 8.266 × 10^−6 ∆A/s and the Vmax ([2]; inhibitor dose 0.4 µM) was 5.242 × 10^−6 ∆A/s. The “Inhibition Type” value ([2]; mushroom tyrosinase, L-DOPA) was “mixed-type inhibition”, the “Ki′ (enzyme substrate inhibitor constant)” value ([2]; mushroom tyrosinase, L-DOPA, secondary plot of intercept) was 0.475 µM and the Ki [2, 5] was 219 nM. For the same compound, the IC50 [3, 6] was 231 ± 7.8 nM.
In the case of COc1ccc(CCNC(=O)COC(=O)/C=C/c2ccc(Cl)cc2)cc1 [Ph10, 2-((4-methoxyphenethyl)amino)-2-oxoethyl (E)-3-(4-chlorophenyl)acrylate], the inhibition [1] is reported as 79.2 ± 5.95% and the IC50 [3, 6] is reported as 452 ± 17.1 nM.
In the case of COc1ccc(CCNC(=O)COC(=O)c2ccc(O)c(O)c2)cc1 [Ph4, 2-((4-methoxyphenethyl)amino)-2-oxoethyl 3,4-dihydroxybenzoate], the inhibition [1] is reported as 82.2 ± 7.04% and the IC50 [3, 6] is reported as 329 ± 21 nM.
In the case of COc1ccc(CCNC(=O)COC(=O)c2ccc(O)cc2)cc1 [Ph2, 2-((4-methoxyphenethyl)amino)-2-oxoethyl 4-hydroxybenzoate], the inhibition [1] is reported as 73 ± 5.35% and the IC50 [3, 6] is reported as 463 ± 17 nM.
For COc1ccc(CCNC(=O)COC(=O)c2cccc(O)c2)cc1 [Ph1, 2-((4-methoxyphenethyl)amino)-2-oxoethyl 3-hydroxybenzoate], the inhibition [1] was 75.6 ± 5.65% and the IC50 [3, 6] was 4070 ± 154 nM.
With COc1ccc(CCNC(=O)COC(=O)/C=C/c2ccc(O)cc2)cc1 [Ph8, 2-((4-methoxyphenethyl)amino)-2-oxoethyl(E)-3-(4-hydroxyphenyl)acrylate] the inhibition [1] was 86.3 ± 6.54%, the melting point was 119 to 121 °C and the IC50 [3, 6] was 923 ± 53 nM.
For COc1ccc(CCNC(=O)COC(=O)C=Cc2ccccc2)cc1 [Ph6, 2-((4-methoxyphenethyl)amino)-2-oxoethyl cinnamate], the “Human Tyrosinase (% Inhibition)” value [1] was 92.24 ± 7.985%, the inhibition at 50 µg/mL [1] was 92.2% and the melting point was 103 to 105 °C. For the same compound, the Ki ([2]; Ki (enzyme inhibitor constant), mushroom tyrosinase, L-DOPA) was 2.3 nM, the Vmax ([2]; inhibitor dose 0.001 µM) was 7.060 × 10^−6 ∆A/s and the Vmax ([2]; inhibitor dose 0.002 µM) was 6.929 × 10^−6 ∆A/s. For the same compound, the “Inhibition Type” value ([2]; mushroom tyrosinase, L-DOPA) was “non-competitive inhibitor; also recorded: non-competitive inhibition”, the IC50 ([3]; Mushroom Tyrosinase IC50 ± SEM, substrate L-DOPA, pH 6.8, 25 °C) was 2.04 ± 0.087 nM and the IC50 ([3]; Mushroom tyrosinase IC50, as printed in the abstract) was 2.1 nM.
For O=c1oc2c(O)c(O)cc3c(=O)oc4c(O)c(O)cc1c4c23 [ellagic acid], the “Tyrosinase inhibitory activity IC50” value ([4]; substrate L-DOPA) is listed as 151.1 µg/mL.
Work on COc1ccc(CCNC(=O)COC(=O)c2ccc(O)cc2O)cc1 [Ph3, 2-((4-methoxyphenethyl)amino)-2-oxoethyl 2,4-dihydroxybenzoate] yielded an inhibition [1] of 79.7 ± 6.61% and an IC50 [3, 6] of 839 ± 38.1 nM.
